Assay results published in patent publication US20130203718A1 (priority 2010, published 2013).

How the values were obtained:
hAR = target: T1, hAR (Homo sapiens, UniProt P10275); assay: APRn selectivity: transactivation in HEK293T cells transiently expressing hAR; type: cell-based; conditions: for agonist efficacy towards hAR (in words): HEK293T, FIG. 11
T1 construct: expressed in transfected cells; host or cells: HEK 293T
T1 sequence (P10275 1-920): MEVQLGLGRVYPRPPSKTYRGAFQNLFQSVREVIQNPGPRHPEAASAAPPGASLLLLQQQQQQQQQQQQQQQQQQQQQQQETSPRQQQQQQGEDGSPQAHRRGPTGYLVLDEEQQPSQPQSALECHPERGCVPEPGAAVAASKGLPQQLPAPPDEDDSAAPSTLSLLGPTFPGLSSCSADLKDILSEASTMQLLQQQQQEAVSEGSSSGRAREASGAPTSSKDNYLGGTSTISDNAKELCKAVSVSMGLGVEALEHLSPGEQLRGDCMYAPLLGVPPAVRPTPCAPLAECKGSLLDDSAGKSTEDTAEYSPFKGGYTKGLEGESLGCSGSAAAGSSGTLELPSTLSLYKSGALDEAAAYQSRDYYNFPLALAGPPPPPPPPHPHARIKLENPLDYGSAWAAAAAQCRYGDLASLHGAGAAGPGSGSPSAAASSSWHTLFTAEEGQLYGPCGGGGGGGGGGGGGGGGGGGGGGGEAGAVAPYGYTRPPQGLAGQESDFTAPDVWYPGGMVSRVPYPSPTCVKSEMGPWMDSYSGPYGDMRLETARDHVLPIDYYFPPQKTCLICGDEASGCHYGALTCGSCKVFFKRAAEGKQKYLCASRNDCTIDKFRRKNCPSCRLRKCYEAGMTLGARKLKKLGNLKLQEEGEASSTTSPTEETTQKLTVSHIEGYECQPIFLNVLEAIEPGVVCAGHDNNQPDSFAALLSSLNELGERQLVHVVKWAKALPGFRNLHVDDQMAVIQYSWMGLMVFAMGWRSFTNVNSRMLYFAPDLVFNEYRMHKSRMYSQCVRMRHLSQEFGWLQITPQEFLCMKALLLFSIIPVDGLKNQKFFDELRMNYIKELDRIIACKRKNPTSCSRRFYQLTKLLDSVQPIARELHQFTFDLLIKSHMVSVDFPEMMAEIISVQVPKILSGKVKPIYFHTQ
Protocol: (§1) Measurement of the APRn Selectivity in HEK 293T.
(§2) The HEK-293T cells were cultured and transfected according to the method described above for the PR transactivation assays. The expression vectors pcDNA-hAR, kindly provided by G. A. Coetzee, pchGR (Hellal-Levy, C et al. FEBS Lett 1999, 464, 9), and pchMR (Fagart, J. et al. EMBO J. 1998, 17, 3317) were used for studying the ability of APRn to activate or inactivate the AR, GR and MR, respectively. For each transfection assays, 2 μg of the expression vector was used together with 7 μg of the GRE2-Luc reporter vector. Dihydrotestosterone (DHT), dexamethasone (Dex) and Aldosterone (Aldo) were selected as AR, GR and MR ligands, respectively. They were used at the concentration of 10^−9 M. The APRn agonist and antagonist efficacy for AR, GR and MR were measured as described above for PR. The results are the mean±SEM of three independent experiments.
(§3) Transfection assays were performed in HEK 293T cells by using expression vectors for the hAR, hGR and hMR and the GRE2-Luc reporter used for the PR transactivation assays.

hMR = target: T2, hMR (Homo sapiens, UniProt P08235); assay: APRn selectivity: transactivation in HEK293T cells transiently expressing hMR; type: cell-based; conditions: mean±SEM
T2 construct: expressed in transfected cells; host or cells: HEK 293T
T2 sequence (P08235 1-984): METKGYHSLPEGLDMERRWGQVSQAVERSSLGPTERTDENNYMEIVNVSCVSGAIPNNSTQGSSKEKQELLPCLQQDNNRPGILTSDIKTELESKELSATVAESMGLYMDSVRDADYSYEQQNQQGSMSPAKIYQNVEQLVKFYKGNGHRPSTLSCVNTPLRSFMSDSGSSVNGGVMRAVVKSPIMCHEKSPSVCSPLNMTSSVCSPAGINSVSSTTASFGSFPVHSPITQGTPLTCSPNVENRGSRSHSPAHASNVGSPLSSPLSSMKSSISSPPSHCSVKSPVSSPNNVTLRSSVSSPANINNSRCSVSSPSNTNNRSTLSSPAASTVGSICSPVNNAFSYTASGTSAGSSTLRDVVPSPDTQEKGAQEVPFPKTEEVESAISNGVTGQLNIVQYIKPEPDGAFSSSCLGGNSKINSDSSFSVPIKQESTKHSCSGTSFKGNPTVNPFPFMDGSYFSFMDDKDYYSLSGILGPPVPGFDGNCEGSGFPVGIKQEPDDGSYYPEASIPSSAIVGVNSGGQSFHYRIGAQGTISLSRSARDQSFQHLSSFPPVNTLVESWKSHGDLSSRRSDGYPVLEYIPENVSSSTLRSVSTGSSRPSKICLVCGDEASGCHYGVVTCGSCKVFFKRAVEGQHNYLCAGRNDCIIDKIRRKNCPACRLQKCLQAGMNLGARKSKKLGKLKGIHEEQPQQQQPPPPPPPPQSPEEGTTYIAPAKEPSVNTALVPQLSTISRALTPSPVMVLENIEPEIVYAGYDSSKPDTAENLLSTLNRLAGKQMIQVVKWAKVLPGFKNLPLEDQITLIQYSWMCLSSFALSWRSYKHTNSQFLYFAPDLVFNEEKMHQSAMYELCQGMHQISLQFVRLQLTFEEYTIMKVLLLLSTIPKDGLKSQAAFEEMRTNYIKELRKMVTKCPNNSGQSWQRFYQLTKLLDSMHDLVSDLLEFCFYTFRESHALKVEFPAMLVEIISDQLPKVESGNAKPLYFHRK
Protocol: as §1, §2, §3

hGR = target: T3, hGR (Homo sapiens, UniProt P04150); assay: APRn selectivity: transactivation in HEK293T cells transiently expressing hGR; type: cell-based; conditions: HEK293T transiently expressing hGR, mean±SEM
T3 construct: expressed in transfected cells; host or cells: HEK 293T
T3 sequence (P04150 1-777): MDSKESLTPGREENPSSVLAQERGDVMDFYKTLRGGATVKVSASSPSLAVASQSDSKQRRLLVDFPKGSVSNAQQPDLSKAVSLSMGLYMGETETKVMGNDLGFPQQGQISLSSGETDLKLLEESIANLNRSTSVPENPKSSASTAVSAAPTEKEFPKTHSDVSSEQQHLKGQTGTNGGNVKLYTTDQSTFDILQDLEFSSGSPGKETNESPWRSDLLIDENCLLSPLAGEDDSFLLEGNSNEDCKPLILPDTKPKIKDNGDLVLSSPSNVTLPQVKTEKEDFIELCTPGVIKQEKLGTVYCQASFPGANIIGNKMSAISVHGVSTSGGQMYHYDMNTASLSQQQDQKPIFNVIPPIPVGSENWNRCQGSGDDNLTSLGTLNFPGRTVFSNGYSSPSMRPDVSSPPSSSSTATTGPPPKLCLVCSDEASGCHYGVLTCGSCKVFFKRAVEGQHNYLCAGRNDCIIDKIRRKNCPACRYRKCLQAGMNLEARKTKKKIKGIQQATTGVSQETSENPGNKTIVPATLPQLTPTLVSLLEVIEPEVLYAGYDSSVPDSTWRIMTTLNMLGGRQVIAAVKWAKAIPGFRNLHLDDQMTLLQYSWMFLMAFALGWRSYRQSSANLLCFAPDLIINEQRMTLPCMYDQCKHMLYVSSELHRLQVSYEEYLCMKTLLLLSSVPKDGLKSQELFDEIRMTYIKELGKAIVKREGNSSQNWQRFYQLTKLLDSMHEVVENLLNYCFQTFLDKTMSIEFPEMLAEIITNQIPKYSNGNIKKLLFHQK
Protocol: as §1, §2, §3

hPRB = target: T4, hPRB (Homo sapiens, UniProt P06401); assay: PR transactivation assay (GRE2-Luc) in HEK293T cells transiently expressing hPRB; type: cell-based; parameters: expressed in transfected cells; host or cells: HEK 293T; conditions: series 1 (no C3 substituent), HEK293T, APRn 1 μM, FIG. 1
T4 sequence (P06401 1-933): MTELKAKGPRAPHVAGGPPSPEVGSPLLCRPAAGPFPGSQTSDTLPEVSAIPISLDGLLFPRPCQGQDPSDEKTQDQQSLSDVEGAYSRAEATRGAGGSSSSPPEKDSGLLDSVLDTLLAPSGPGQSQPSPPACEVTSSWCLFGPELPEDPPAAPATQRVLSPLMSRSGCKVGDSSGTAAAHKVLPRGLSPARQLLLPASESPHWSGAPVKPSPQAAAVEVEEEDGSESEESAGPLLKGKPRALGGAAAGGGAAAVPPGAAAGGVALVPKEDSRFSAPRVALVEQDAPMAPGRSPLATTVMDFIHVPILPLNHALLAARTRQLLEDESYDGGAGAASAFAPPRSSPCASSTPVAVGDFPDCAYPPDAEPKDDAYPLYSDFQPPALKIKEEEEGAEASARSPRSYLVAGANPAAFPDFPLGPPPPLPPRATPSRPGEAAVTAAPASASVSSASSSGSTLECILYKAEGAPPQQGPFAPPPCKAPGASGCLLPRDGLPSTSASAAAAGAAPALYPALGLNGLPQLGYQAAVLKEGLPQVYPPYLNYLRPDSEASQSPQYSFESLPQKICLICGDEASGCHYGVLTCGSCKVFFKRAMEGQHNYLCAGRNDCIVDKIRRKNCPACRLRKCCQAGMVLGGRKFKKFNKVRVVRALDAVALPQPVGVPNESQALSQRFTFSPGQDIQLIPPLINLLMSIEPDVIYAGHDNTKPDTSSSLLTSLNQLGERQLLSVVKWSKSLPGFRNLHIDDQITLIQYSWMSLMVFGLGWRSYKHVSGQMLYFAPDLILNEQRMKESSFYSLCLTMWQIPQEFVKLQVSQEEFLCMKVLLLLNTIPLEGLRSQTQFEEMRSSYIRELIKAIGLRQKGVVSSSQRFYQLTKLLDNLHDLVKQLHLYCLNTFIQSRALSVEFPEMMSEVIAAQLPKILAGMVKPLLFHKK
Protocol: PR Transactivation Assays in HEK 293T.
HEK 293T cells were routinely cultured in a high-glucose DMEM medium (Invitrogene, Cergy Pontoise, France), 20 mM HEPES, 2 mM glutamine, 1× non essential amino acids, 100 U/mL penicillin and 100 μg/mL streptomycin supplemented with 10% foetal calf serum (FCS) in a humidified atmosphere at 37° C. and with 5% CO2. One day before transfection, the cells were seeded at 3×10^6 cells/[…] diameter culture Petri dish and cultured overnight in the same medium. Six hours before transfection, the FCS supplemented medium was replaced by the same medium supplemented with 10% dextran-charcoal treated FCS. Transfections were carried out using the calcium phosphate precipitation method. The calcium phosphate precipitate was prepared with 0.5 μg pchPRB (Petit-Topin, et al Mol Pharmacol, 2009, 75, 1317), 7 μg reporter vector (GRE2-Luc from A. Biola-Vidamment and M. Pallardy) and 1 μg of pcβgal for an internal transfection control, in 1 mL 140 mM NaCl, 0.75 mM Na2HPO4, 25 mM HEPES, 125 mM CaCl2 pH 7.05 and added to the cells 30 minutes later. After 16 h incubation, the transfected cells were washed with PBS containing 2.5 mM EDTA, trypsinized and pooled. The transfected cells were replated in 24-well plates (100.000 transfected cells/well). […] Cells were lysed in 300 μl PBS 1×, 25 mM glycylglycine, 4 mM EDTA, 15% glycerol, 1% triton X-100, 15 mM MgSO4, pH 7.8 supplemented with 2 mM β-mercaptoethanol. The luciferase activities were quantified by using a Mithras LB940 reader microplates (Berthold).
The APRn “agonist efficacy” was determined from the following formula:
Agonist efficacy=[luciferase activity]1/[luciferase activity]2×100
The APRn “antagonist efficacy” was calculated from the following formula:
Antagonist efficacy=100−[luciferase activity]1/[luciferase activity]2×100
The results are the mean±SEM of three to five independent experiments.
All the synthesized APRn were classified in 4 series depending on the nature of their C3 substituent (R1/R′1 groups). The first one (series 1) includes APRn with no C3 substituent (R1═R′1═H) whereas series 2, 3 and 4 are related to APRn bearing a methoxyl (R1═OMe), a hydroxyl (R1═OH) and a fluorine atom (R1═F), respectively. The agonist/antagonist activities of APRn were determined either in human HEK293T cells transiently expressing hPRB or in human MDA-MB-231 iPRAB cells conditionally expressing hPRB, by using a luciferase reporter gene placed under the control of a glucocorticoid response element (GRE2-Luc). The APRn “agonist efficacy” was determined from the luciferase activity measured in the presence of APRn (1 μM). […] The “agonist efficacy” and “antagonist efficacy” are expressed as defined in the biological protocols section.

For CC(=O)[C@H]1CC[C@H]2[C@@H]3CC[C@H]4C[C@@H](F)CC[C@]4(C)[C@H]3CC[C@]12C [APR-17, 3β-Fluoro-5α-pregnan-20-one], the “agonist efficacy towards hAR (in words)” value (hAR) was “low agonist efficacy”, the “selectivity for hPR vs hAR, hGR and hMR (in words)” value (hAR; conclusion from hAR, hGR and hMR transactivation assays) was “selective hPR antagonists” and the melting point was 154 to 155 °C.

With CC#C[C@]1(O)CCC2C3CC=C4C[C@@H](F)CC[C@]4(C)C3CC[C@@]21C (stereo partly drawn) [APR-44, 31-Fluoro-17α-(1-propynyl)androst-5-en-17β-ol] the “MR Antagonist efficacy (%)” value (hMR; aldosterone 10^−9 M) was 1.6 ± 5.5%, the “MR Agonist efficacy (%)” value (hMR) was 0.47 ± 0.10% and the “GR Antagonist efficacy (%)” value (hGR; dexamethasone 10^−9 M) was 2.0 ± 2.8%. It also gave an Emax (hGR; HEK-293T, read-out: GR Agonist efficacy (%)) of 0.2 ± 0.1% and a melting point of 136 to 137 °C.

For CC(=O)O[C@H]1CCC2C3CC=C4C=CCC[C@@H]4C3CC[C@@]21C (stereo partly drawn) [APR-49, 17β-Acetoxy-19-nor-androst-3,5-diene], the “agonist efficacy towards hAR (in words)” value (hAR) was “high potent hAR agonists”, the melting point was 94 to 95 °C and the “hPRB agonist/antagonist character (in words)” value (hPRB) was “full antagonists”.
